# Reference: article PMC9019904, “AD Informer Set: Chemical tools to facilitate Alzheimer's disease drug discovery” (Alzheimer's & Dementia : Translational Research & Clinical …, 2022)
# Structures can show the parent of a compound that is named as a salt.
# Assays:
# [1] = Kinetic solubility in aqueous buffer pH 7.4 by total chemiluminescent nitrogen determination (Analiza); conditions: aqueous buffer, pH 7.4, aqueous buffer, kinetic from dmso stock
# [2] = system: BV2 (mouse microglia) cell line; assay: pHrodo-myelin phagocytosis/cell viability high content imaging assay: viability (cell count, nuclear area, nuclear intensity)
# Procedure, shortened: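 Viability was read by high-content imaging as cell count per well and nuclear intensity per cell, in murine BV2 and human HMC3 microglial lines. Cells received a single 10 μM compound dose for 48 h, including 20 h with pHrodo-myelin. Duplicate means are expressed as % of untreated control.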
# [3] = system: HMC3 (human microglia) cell line; assay: pHrodo-myelin phagocytosis/cell viability high content imaging assay: phagocytosis signal; assay type: cell-based
# Procedure, shortened: (§1)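 Imaging at high content captured pHrodo-myelin uptake about 22 hours after its addition, alongside a viability read-out from the same cells. Three measurements were derived, with intensity increase marking early apoptosis and decrease marking later apoptosis.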
# [4] = system: BV2 (mouse microglia) cell line; assay: as above; assay type: cell-based
# Procedure, shortened: as §1
SMILES,solubility kinetic [1] [µM],"Mouse microglial cytotoxicity at 10 μM (<70% control) ([2]; 10 μM, BV2)","Inhibition of human microglial phagocytosis at 10 μM (<70% control) ([3]; 10 μM, HMC3)","Inhibition of mouse microglial phagocytosis at 10 μM (<70% control) ([4]; 10 μM, BV2)","Stimulation of mouse microglial phagocytosis at 10 μM (>150% control) ([4]; 10 μM, BV2)","Inhibition of human microglial phagocytosis at 10 μM (<70% control) ([3]; HMC3, 10 μM)","Stimulation of mouse microglial phagocytosis at 10 μM (>150% control) ([4]; BV2, 10 μM)","Mouse microglial cytotoxicity at 10 μM (<70% control) ([2]; BV2, 10 μM)","Stimulation of human microglial phagocytosis at 10 μM (>150% control) ([3]; HMC3, 10 μM)","Inhibition of mouse microglial phagocytosis at 10 μM (<70% control) ([4]; BV2, 10 μM)"
O=C(/C=C/c1ccco1)Nc1ncc(Cc2ccccc2)s1 [Compound 1],< 1.1,Y (The compound was found to be cytotoxic (cell count threshold: <70% control) when murine immortalized microglial cells were dosed at 10 μM (Y: yes)),Y (The compound was found to inhibit phagocytosis (response threshold: <70% control) when human immortalized microglial cells were dosed at 10 μM (Y: yes)),Y (The compound was found to inhibit phagocytosis (response threshold: <70% control) when murine immortalized microglial cells were dosed at 10 μM (Y: yes)),,,,,,
CO[C@H]1C[C@@H]2CC[C@@H](C)[C@@](O)(O2)C(=O)C(=O)N2CCCC[C@H]2C(=O)O[C@H]([C@H](C)C[C@@H]2CC[C@@H](O)[C@H](OC)C2)CC(=O)[C@H](C)/C=C(\C)[C@@H](O)[C@@H](OC)C(=O)[C@H](C)C[C@H](C)/C=C/C=C/C=C/1C [Sirolimus],19.8,Y (The compound was found to be cytotoxic (cell count threshold: <70% control) when murine immortalized microglial cells were dosed at 10 μM (Y: yes)),Y (The compound was found to inhibit phagocytosis (response threshold: <70% control) when human immortalized microglial cells were dosed at 10 μM (Y: yes)),,Y (The compound was found to stimulate phagocytosis (response threshold: >150% control) when murine immortalized microglial cells were dosed at 10 μM (Y: yes)),,,,,
O=C(NC1CCNCC1)c1n[nH]cc1NC(=O)c1c(Cl)cccc1Cl [AT-7519],146,,,,,,,Y (The compound was found to be cytotoxic (cell count threshold: <70% control) when murine immortalized microglial cells were dosed at 10 μM (Y: yes)),Y (The compound was found to stimulate phagocytosis (response threshold: >150% control) when human immortalized microglial cells were dosed at 10 μM (Y: yes)),Y (The compound was found to inhibit phagocytosis (response threshold: <70% control) when murine immortalized microglial cells were dosed at 10 μM (Y: yes))
CN(C)C/C=C/C(=O)Nc1cc2c(Nc3ccc(F)c(Cl)c3)ncnc2cc1O[C@H]1CCOC1 [Afatinib],117,,,,,Y (The compound was found to inhibit phagocytosis (response threshold: <70% control) when human immortalized microglial cells were dosed at 10 μM (Y: yes)),,Y (The compound was found to be cytotoxic (cell count threshold: <70% control) when murine immortalized microglial cells were dosed at 10 μM (Y: yes)),,Y (The compound was found to inhibit phagocytosis (response threshold: <70% control) when murine immortalized microglial cells were dosed at 10 μM (Y: yes))
C[C@@H](Oc1cc(-c2cnn(C3CCNCC3)c2)cnc1N)c1c(Cl)ccc(F)c1Cl [Crizotinib],160,,,,,Y (The compound was found to inhibit phagocytosis (response threshold: <70% control) when human immortalized microglial cells were dosed at 10 μM (Y: yes)),,,,Y (The compound was found to inhibit phagocytosis (response threshold: <70% control) when murine immortalized microglial cells were dosed at 10 μM (Y: yes))
C[C@H]1Oc2cc(cnc2N)-c2c(nn(C)c2C#N)CN(C)C(=O)c2ccc(F)cc21 [Lorlatinib],172,,,,,Y (The compound was found to inhibit phagocytosis (response threshold: <70% control) when human immortalized microglial cells were dosed at 10 μM (Y: yes)),Y (The compound was found to stimulate phagocytosis (response threshold: >150% control) when murine immortalized microglial cells were dosed at 10 μM (Y: yes)),,,

# Now from value to compound, other results behind:
solubility kinetic [1] [µM],SMILES,"Mouse microglial cytotoxicity at 10 μM (<70% control) ([2]; 10 μM, BV2)","Inhibition of human microglial phagocytosis at 10 μM (<70% control) ([3]; 10 μM, HMC3)","Inhibition of mouse microglial phagocytosis at 10 μM (<70% control) ([4]; 10 μM, BV2)","Stimulation of mouse microglial phagocytosis at 10 μM (>150% control) ([4]; 10 μM, BV2)","Inhibition of human microglial phagocytosis at 10 μM (<70% control) ([3]; HMC3, 10 μM)","Stimulation of mouse microglial phagocytosis at 10 μM (>150% control) ([4]; BV2, 10 μM)","Mouse microglial cytotoxicity at 10 μM (<70% control) ([2]; BV2, 10 μM)","Stimulation of human microglial phagocytosis at 10 μM (>150% control) ([3]; HMC3, 10 μM)","Inhibition of mouse microglial phagocytosis at 10 μM (<70% control) ([4]; BV2, 10 μM)"
6.2,O=C(Nc1ccc2[nH]nc(-c3ccncc3)c2c1)[C@@H]1CCN(CC(=O)N2CCN(c3ccc(-c4ncccn4)cc3)CC2)C1 [SCH772984],Y (The compound was found to be cytotoxic (cell count threshold: <70% control) when murine immortalized microglial cells were dosed at 10 μM (Y: yes)),Y (The compound was found to inhibit phagocytosis (response threshold: <70% control) when human immortalized microglial cells were dosed at 10 μM (Y: yes)),,Y (The compound was found to stimulate phagocytosis (response threshold: >150% control) when murine immortalized microglial cells were dosed at 10 μM (Y: yes)),,,,,
40.8,O=C(CCl)c1ccccc1Nc1cccc(C(F)(F)F)c1 [TED-347],,,,,Y (The compound was found to inhibit phagocytosis (response threshold: <70% control) when human immortalized microglial cells were dosed at 10 μM (Y: yes)),Y (The compound was found to stimulate phagocytosis (response threshold: >150% control) when murine immortalized microglial cells were dosed at 10 μM (Y: yes)),,,
796,COc1ccc(CCCN2CCC(COC(c3ccccc3)c3ccccc3)CC2)cc1 [UK-78282 HCl],,Y (The compound was found to inhibit phagocytosis (response threshold: <70% control) when human immortalized microglial cells were dosed at 10 μM (Y: yes)),,Y (The compound was found to stimulate phagocytosis (response threshold: >150% control) when murine immortalized microglial cells were dosed at 10 μM (Y: yes)),,,,,
40,O=S(=O)(c1ccccc1)N(CC(F)(F)F)c1ccc(C(O)(C(F)(F)F)C(F)(F)F)cc1 [T 0901317],,Y (The compound was found to inhibit phagocytosis (response threshold: <70% control) when human immortalized microglial cells were dosed at 10 μM (Y: yes)),,Y (The compound was found to stimulate phagocytosis (response threshold: >150% control) when murine immortalized microglial cells were dosed at 10 μM (Y: yes)),,,,,
155,O=C(O)CCCc1nc(-c2ccc(Cl)c(Cl)c2)c(-c2ccccc2)o1 [SWE101],,,,,Y (The compound was found to inhibit phagocytosis (response threshold: <70% control) when human immortalized microglial cells were dosed at 10 μM (Y: yes)),Y (The compound was found to stimulate phagocytosis (response threshold: >150% control) when murine immortalized microglial cells were dosed at 10 μM (Y: yes)),,,
4.8,CS[C@@]1(C(=O)Nc2ccc3[nH]nc(-c4ccc(OC(C)C)nc4)c3c2)CCN(CC(=O)N2CC=C(c3ccc(-c4ncn(C)n4)cc3)CC2)C1 [MK-8353],Y (The compound was found to be cytotoxic (cell count threshold: <70% control) when murine immortalized microglial cells were dosed at 10 μM (Y: yes)),Y (The compound was found to inhibit phagocytosis (response threshold: <70% control) when human immortalized microglial cells were dosed at 10 μM (Y: yes)),,Y (The compound was found to stimulate phagocytosis (response threshold: >150% control) when murine immortalized microglial cells were dosed at 10 μM (Y: yes)),,,,,
